Reference: patent US10196403B2, “Compounds and compositions and uses thereof” (Sunovion Pharmaceuticals Inc., priority 2016, dated 2019)
Read-outs that look alike come from different tables or passages of the source.

System: mice
Assay: Neuropharmacological Assay (SmartCube)
Type: in vivo
Settings: for minimal effective dose: Mus musculus, read-out: POTENCY (minimal effective dose, MED); for AD: ADHD (SmartCube probability) / AG: analgesic (SmartCube probability) / AX: anxiolytic (SmartCube probability) / CE: cognitive enhancer (SmartCube probability) / DP: anti-depressant (SmartCube probability) / MS: mood stabilizer (SmartCube probability) / PS: anti-psychotic (SmartCube probability) / SD: sedative hypnotic (SmartCube probability) / UN: uncharacterized CNS activity (SmartCube probability): mice, i.p. 15 min before test, most efficacious dose(s) of 3 doses
Outline: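 Compounds in NMP/PEG/propylene glycol given i.p. 15 min before automated video-based behavioral testing, at 3 doses; behavioral signature compared with a reference-compound database to give probability per drug class, reported at most efficacious dose. MED = dose (mpk) giving ≥50% total activity; doses typically 0.3–30 mpk.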

[1] = MED = dose having 50% or more total activity in SmartCube

Row | Structure (SMILES) | minimal effective dose [mg/kg] | AD: ADHD (SmartCube probability) | AG: analgesic (SmartCube probability) | AX: anxiolytic (SmartCube probability) | CE: cognitive enhancer (SmartCube probability) | DP: anti-depressant (SmartCube probability) | MS: mood stabilizer (SmartCube probability) | PS: anti-psychotic (SmartCube probability) | SD: sedative hypnotic (SmartCube probability) | UN: uncharacterized CNS activity (SmartCube probability) | minimal effective dose [1] [mg/kg]
1 | Fc1cccc2c1[C@H](CNC1CCC1)OCC2 [Example 97, (R)-N-((8-fluoroisochroman-1-yl)methyl)cyclobutanamine] | 3 to 10 | ++ (5%≤ ++ <25%) | + (LOQ≤ + <5%) | ++ (5%≤ ++ <25%) | + (LOQ≤ + <5%) | +++ (25%≤ +++ <50%) | + (LOQ≤ + <5%) | ++ (5%≤ ++ <25%) | + (LOQ≤ + <5%) | +++ (25%≤ +++ <50%) | 
2 | CNC[C@H]1OC[C@@H](O)c2cccc(F)c21 [Example 98, (1S,4S)-8-fluoro-1-((methylamino)methyl)isochroman-4-ol] |  | + (LOQ≤ + <5%) | + (LOQ≤ + <5%) | + (LOQ≤ + <5%) | + (LOQ≤ + <5%) | + (LOQ≤ + <5%) | + (LOQ≤ + <5%) | + (LOQ≤ + <5%) | + (LOQ≤ + <5%) | + (LOQ≤ + <5%) | > 30
3 | CNC[C@@H]1OC[C@H](O)c2cccc(F)c21 [Example 99, (1R,4R)-8-fluoro-1-((methylamino)methyl)isochroman-4-ol] |  | + (LOQ≤ + <5%) | + (LOQ≤ + <5%) | ++ (5%≤ ++ <25%) | + (LOQ≤ + <5%) | + (LOQ≤ + <5%) | + (LOQ≤ + <5%) | ++ (5%≤ ++ <25%) | ++ (5%≤ ++ <25%) | +++ (25%≤ +++ <50%) | 10 to 30
4 | CNC[C@@H]1OCCc2ccc3c(c21)OC(F)(F)O3 [Example 101, (R)-1-(2,2-difluoro-6,9-dihydro-7H-[1,3]dioxolo[4,5-h]isochromen-9-yl)-N-methylmethanamine] |  | + (LOQ≤ + <5%) | +++ (25%≤ +++ <50%) | ++ (5%≤ ++ <25%) | ++ (5%≤ ++ <25%) | + (LOQ≤ + <5%) | + (LOQ≤ + <5%) | ++ (5%≤ ++ <25%) | + (LOQ≤ + <5%) | + (LOQ≤ + <5%) | 3 to 10
5 | CNC[C@H]1OCCc2ccc3c(c21)OC(F)(F)O3 [Example 102, (S)-1-(2,2-difluoro-6,9-dihydro-7H-[1,3]dioxolo[4,5-h]isochromen-9-yl)-N-methylmethanamine] |  | + (LOQ≤ + <5%) | ++ (5%≤ ++ <25%) | ++ (5%≤ ++ <25%) | + (LOQ≤ + <5%) | ++ (5%≤ ++ <25%) | + (LOQ≤ + <5%) | + (LOQ≤ + <5%) | + (LOQ≤ + <5%) | +++ (25%≤ +++ <50%) | 10 to 30
6 | CNC[C@@H]1OCCc2ccc3c(c21)OCC3 [Example 105, (R)-N-methyl-1-(2,3,6,9-tetrahydro-7H-furo[3,2-h]isochromen-9-yl)methanamine] |  | + (LOQ≤ + <5%) | + (LOQ≤ + <5%) | ++ (5%≤ ++ <25%) | + (LOQ≤ + <5%) | ++ (5%≤ ++ <25%) | + (LOQ≤ + <5%) | ++ (5%≤ ++ <25%) | +++ (25%≤ +++ <50%) | + (LOQ≤ + <5%) | < 3
